Reference: US8759367B2, “Compounds and methods for the prevention and treatment of cancer” (The Wistar Institute, priority 2010, dated 2014)

Tested on: GLI1-driven reporter activity mediated by exogenous SHH (Shh-light2 cells)
Assay: GLI-dependent firefly luciferase reporter assay in Shh-light2 cells treated with SHH
Assay type: cell-based
Settings: AKI0532 5, 2.5 or 1 μM in DMSO, alone (−SHH) or with SHH (+SHH), 2 days, FIG. 1
Description: Shh-light2 cells (3T3 clone stably transfected with a GLI-dependent firefly luciferase plasmid) were treated with carrier DMSO as control or AKI0532 (5, 2.5, or 1 μM in DMSO) either alone (−SHH) or in combination with SHH (+SHH) for 2 days.
For example, AKI0532 analogs shown in Table 1 can be subjected to a battery of tests that are commonly used to assess effects on SHH activity and to determine specificity. As exemplified herein for AKI0532, one screen involves examining the activation of the SHH pathway using the well-established cell line, SHH-Light2 cells. This cell line is a 3T3 clone that stably expresses a GLI-dependant firefly luciferase (Taipale, et al. (2000) Nature 406:1005-1009). […] Concentrations of each compound, ranging from 20 μM to 1 μM, can be tested. SHH-Light2 cells are seeded 24 hours prior to treatment. They were then cultured for an additional 48 hours in standard serum-containing media prior to analysis. GLI-binding site luciferase activities are measured using a commercially available luciferase reporter assay system. Treatment of SHH-Light2 cells with recombinant SHH (200 ng) results in strong induction of reporter activity. IC50 values are determined and are compared to that of AKI0532 in the same assay in order to assess which of the AKI0532 analogs have the highest levels of SHH inhibitory activity.

## C[C@]12CCC(c3ccc(O)cc3)=CC1=CC[C@@]21Cc2ncccc2O1 [AKI0532]
  GLI1-driven reporter activity mediated by exogenous SHH: inhibits GLI1-driven reporter activity mediated by exogenous SHH
